Results reported in ChEMBL document CHEMBL1154744, “HIV-1 protease inhibitors with a transition-state mimic comprising a tertiary alcohol: improved antiviral activity in cells” (J Med Chem, 2010).

Tests used:
[1] = test system: Human immunodeficiency virus 1; assay: Antiviral activity against HIV1 infected in human MT4 cells assessed as inhibition of virus-induced cytopathogenicity after 6 days by XTT assay; assay type: functional, organism-based; conditions: Human immunodeficiency virus 1, MT4, 144 h
Protease = Protease (Human immunodeficiency virus 1, UniProt Q9YQ12); assay: Inhibition of HIV1 protease expressed in Escherichia coli by fluorometric assay
[2] = Cytotoxicity against human MT4 cells assessed as decrease in cell proliferation after 5 days by XTT assay; assay type: cell-based
[3] = test system: Human immunodeficiency virus 1; assay: Antiviral activity against HIV1 with protease G48V, L90M mutant by cell free assay; assay type: functional, organism-based
[4] = test system: Human immunodeficiency virus 1; assay: Antiviral activity against […] HIV1 with protease A71V, I84V L90M mutant by cell free assay; assay type: functional, organism-based
[5] = Apparent permeability across human Caco-2 cells; assay type: ADME, cell-based
[6] = molecular target: Human immunodeficiency virus type 1 protease (Human immunodeficiency virus 1, UniProt Q72874, I84V/L63P/V82T); assay: Inhibition of HIV1 protease L63P, V82T, I84V mutant
[7] = test system: Human immunodeficiency virus 1; assay: Antiviral activity against HIV1 with protease V32I, M46I V82A mutant by cell free assay; assay type: functional, organism-based
[8] = test system: Human immunodeficiency virus 1; assay: Antiviral activity against HIV1 with protease V32I, M46I A71V, V82A mutant by cell free assay; assay type: functional, organism-based
[9] = test system: Human immunodeficiency virus 1; assay: Antiviral activity against HIV1 with protease M46I, V82F, I84V mutant by cell free assay; assay type: functional, organism-based
[10] = Metabolic stability in liver microsomes assessed as intrinsic clearance; assay type: ADME, Microsome

Chain of Protease (Q9YQ12 whole entry): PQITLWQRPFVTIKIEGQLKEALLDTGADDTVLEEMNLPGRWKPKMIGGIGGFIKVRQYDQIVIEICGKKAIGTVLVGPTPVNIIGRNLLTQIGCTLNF
Chain of Human immunodeficiency virus type 1 protease (Q72874 entry or part of it I84V/L63P/V82T): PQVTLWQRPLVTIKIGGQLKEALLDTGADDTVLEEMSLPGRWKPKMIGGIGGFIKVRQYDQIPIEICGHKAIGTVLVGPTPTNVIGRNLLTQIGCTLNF

SMILES | Ki (Protease) [nM] | EC50 [1] [nM] | CC50 at 120 h [2] [nM] | other results
COC(=O)N[C@H](C(=O)N(Cc1ccc(Br)cc1)C[C@@](O)(Cc1ccccc1)C(=O)N[C@H]1c2ccccc2C[C@H]1O)C(C)(C)C |  | > 10000 | > 10000 | 
COC(=O)N[C@H](C(=O)NN(CC[C@@](O)(Cc1ccccc1)C(=O)N[C@H]1c2ccccc2C[C@H]1O)Cc1ccc(-c2cccnc2)cc1)C(C)(C)C | 1.2 | 9 | 4900 | EC50 [3]: 10 nM; EC50 [4]: 19 nM; Papp [5]: 26 ×10⁻⁶ cm/s; Ki [6]: 16 nM; EC50 [7]: 27 nM; EC50 [8]: 14 nM; EC50 [9]: 600 nM; clearance [10]: > 300 µL/min/mg
CNC(=O)[C@@H](NC(=O)[C@@](O)(CCN(Cc1ccc(Br)cc1)NC(=O)[C@@H](NC(=O)OC)C(C)(C)C)Cc1ccccc1)C(C)C | 2.9 | 160 | > 10000 | 
COC(=O)N[C@H](C(=O)NN(CC[C@@](O)(Cc1ccccc1)C(=O)N[C@H]1c2ccccc2C[C@H]1O)Cc1ccc(Br)cc1)C(C)(C)C | 2.9 | 40 | 7900 | EC50 [3]: 8 nM; EC50 [4]: 44 nM; Papp [5]: 42 ×10⁻⁶ cm/s; Ki [6]: 30 nM; EC50 [7]: 74 nM; EC50 [8]: 70 nM; EC50 [9]: 240 nM; clearance [10]: > 300 µL/min/mg
COC(=O)N[C@H](C(=O)N[C@@H](Cc1ccccc1)[C@@H](O)CN(Cc1ccc(-c2ccccn2)cc1)NC(=O)[C@@H](NC(=O)OC)C(C)(C)C)C(C)(C)C [ATAZANAVIR] | 0.5 |  |  | 
Cc1cccc(C)c1OCC(=O)N[C@@H](Cc1ccccc1)[C@@H](O)C[C@H](Cc1ccccc1)NC(=O)[C@H](C(C)C)N1CCCNC1=O [LOPINAVIR] |  | 10 |  | 
COC(=O)N[C@H](C(=O)NN(CC[C@@](O)(Cc1ccccc1)C(=O)N[C@H]1c2ccccc2C[C@H]1O)Cc1ccc(-c2ccc(NC(C)=O)cc2)cc1)C(C)(C)C | 1.8 | 30 | > 10000 | 
COC(=O)N[C@H](C(=O)NN(CC[C@@](O)(Cc1ccccc1)C(=O)N[C@H]1c2ccccc2C[C@H]1O)Cc1ccc(-c2ccccn2)cc1)C(C)(C)C |  | 7 | > 10000 | EC50 [3]: 8 nM; EC50 [4]: 7 nM; Papp [5]: 3.5 ×10⁻⁶ cm/s; EC50 [7]: 24 nM; EC50 [8]: 6 nM; EC50 [9]: 130 nM; clearance [10]: 20 µL/min/mg
CC(C)CN(C[C@@H](O)[C@H](Cc1ccccc1)NC(=O)O[C@H]1CO[C@H]2OCC[C@H]21)S(=O)(=O)c1ccc(N)cc1 |  | 4 |  | 
CNC(=O)[C@@H](NC(=O)[C@@](O)(CCN(Cc1ccc(Br)cc1)NC(=O)[C@@H](NC(=O)OC)C(C)(C)C)Cc1ccccc1)C(C)(C)C | 1.7 | 72 | > 10000 | 
COCCNC(=O)[C@@H](NC(=O)[C@](O)(CCN(Cc1ccc(Br)cc1)NC(=O)[C@@H](NC(=O)OC)C(C)(C)C)Cc1ccccc1)C(C)C | 2750 | > 10000 | > 10000 | 
CC(C)(C)NC(=O)[C@@H]1CN(Cc2cccnc2)CCN1C[C@@H](O)C[C@@H](Cc1ccccc1)C(=O)N[C@H]1c2ccccc2C[C@H]1O |  | 50 |  | 
COCCNC(=O)[C@@H](NC(=O)[C@@](O)(CCN(Cc1ccc(Br)cc1)NC(=O)[C@@H](NC(=O)OC)C(C)(C)C)Cc1ccccc1)C(C)C | 3.2 | 170 | > 10000 | 
COC(=O)N[C@H](C(=O)NN(Cc1ccc(-c2cccnc2)cc1)C[C@@](O)(Cc1ccccc1)C(=O)N[C@H]1c2ccccc2C[C@H]1O)C(C)(C)C |  |  | > 10000 | clearance [10]: 154 µL/min/mg
CNC(=O)[C@@H](NC(=O)[C@](O)(CCN(Cc1ccc(Br)cc1)NC(=O)[C@@H](NC(=O)OC)C(C)(C)C)Cc1ccccc1)C(C)(C)C | 2200 | > 10000 | > 10000 | 
CNC(=O)[C@@H](NC(=O)[C@](O)(CCN(Cc1ccc(Br)cc1)NC(=O)[C@@H](NC(=O)OC)C(C)(C)C)Cc1ccccc1)C(C)C | 1240 | > 10000 | > 10000 | 
CC(C)c1nc(CN(C)C(=O)N[C@H](C(=O)N[C@@H](Cc2ccccc2)C[C@H](O)[C@H](Cc2ccccc2)NC(=O)OCc2cncs2)C(C)C)cs1 [RITONAVIR] |  | 50 |  | 

Further lines, with some results ahead:

Ki (Protease) [nM] | SMILES | EC50 [1] [nM] | CC50 at 120 h [2] [nM] | other results
1.7 | COC(=O)N[C@H](C(=O)NN(CC[C@@](O)(Cc1ccccc1)C(=O)N[C@H]1c2ccccc2C[C@H]1O)Cc1ccc(-c2cnn(C)c2)cc1)C(C)(C)C | 10 | > 10000 | 
> 5000 | COC(=O)N[C@H](C(=O)NN(Cc1ccccc1)C[C@@](O)(Cc1ccccc1)C(=O)N[C@H]1c2ccccc2C[C@H]1O)C(C)(C)C | > 10000 |  | 
12 | COC(=O)N[C@H](C(=O)NN(CC[C@@](O)(Cc1ccccc1)C(=O)N[C@H]1c2ccccc2C[C@H]1O)Cc1ccc(-c2ccccc2)cc1)C(C)(C)C | 8 | > 10000 | 
8 | COC(=O)N[C@H](C(=O)NN(CC[C@@](O)(Cc1ccccc1)C(=O)N[C@H]1c2ccccc2C[C@H]1O)Cc1ccc(-c2ccc3c(c2)OCO3)cc1)C(C)(C)C | 3 | 6100 | 
> 5000 | COC(=O)N[C@H](C(=O)NN(CC[C@](O)(Cc1ccccc1)C(=O)N[C@H]1c2ccccc2C[C@H]1O)Cc1ccc(Br)cc1)C(C)(C)C | > 10000 | > 10000 | 
8.2 | COC(=O)N[C@H](C(=O)NN(CCc1ccccc1)CC[C@@](O)(Cc1ccccc1)C(=O)N[C@H]1c2ccccc2C[C@H]1O)C(C)(C)C | 6800 |  | 
2.3 | COC(=O)N[C@H](C(=O)NN(CC[C@@](O)(Cc1ccccc1)C(=O)N[C@H]1c2ccccc2C[C@H]1O)Cc1ccccc1)C(C)(C)C | 190 | > 10000 | 
11 | COC(=O)N[C@H](C(=O)NN(CC[C@@](O)(Cc1ccccc1)C(=O)N[C@H]1c2ccccc2C[C@H]1O)Cc1ccc(-c2cc(F)cc(F)c2)cc1)C(C)(C)C | 13 | > 10000 | 
2.8 | COC(=O)N[C@H](C(=O)NN(CC[C@@](O)(Cc1ccccc1)C(=O)N[C@H]1c2ccccc2C[C@H]1O)Cc1ccc(-c2c(C)noc2C)cc1)C(C)(C)C | 5 | > 10000 | 
2.3 | COC(=O)N[C@H](C(=O)NN(CC[C@@](O)(Cc1ccccc1)C(=O)N[C@H]1c2ccccc2C[C@H]1O)Cc1ccc(-c2ccncc2)cc1)C(C)(C)C | 3 | > 10000 | 
> 5000 | COC(=O)N[C@H](C(=O)NN(Cc1ccccc1)C[C@](O)(Cc1ccccc1)C(=O)N[C@H]1c2ccccc2C[C@H]1O)C(C)(C)C | > 10000 |  | 
